Results reported in patent US20250129102A1, “CRYSTAL FORM OF PYRIMIDINE HETEROCYCLIC COMPOUND AND PREPARATION METHOD THEREFOR” (D3 Bio (Wuxi) Co., Ltd., priority 2021, published 2025).

Tested on: human pancreatic cancer Mia PaCa-2 cells
Test: Pharmacodynamics in vivo, subcutaneously transplanted Mia PaCa-2 tumor model
Set-up: species or system Balb/c Nude mice
Details: day 22 of administration
Description: Assay on pharmacodynamics in vivo in a subcutaneously transplanted tumor model of human pancreatic cancer Mia PaCa-2 cells in Balb/c Nude mice
Cell culture: Human pancreatic cancer Mia PaCa-2 cells (ATCC-CRL-1420) were cultured in monolayer in vitro in DMEM medium with 10% fetal calf serum and 2.5% horse serum in a 37° C., 5% carbon dioxide incubator. Cells were passaged by routine digestion with trypsin-EDTA twice a week. When the cell saturation reached 80%-90% and the cell number met the requirement, the cells were harvested, counted, and resuspended in an appropriate amount of PBS. Matrigel was added in a ratio of 1:1 to obtain a cell suspension with a cell density of 25×10^6 cells/mL.
Cell inoculation: 0.2 mL (5×10^6 cells/mouse) of Mia PaCa-2 cells (plus Matrigel, 1:1 by volume) were subcutaneously inoculated into the right back of each mouse. When the average tumor volume reached 190 mm^3, mice were randomized into groups based on tumor volume and administration was initiated according to the protocol in Table 15.
Tumor diameter was measured with vernier caliper twice a week. The calculation formula of tumor volume was: V=0.5a×b^2, where a and b represent the long and short diameters of the tumor, respectively.
The anti-tumor efficacy of compound was evaluated by TGI (%) or relative tumor proliferation rate T/C (%). Relative tumor proliferation rate T/C (%)=TRTV/CRTV×100% (TRTV: RTV in a treatment group; CRTV: RTV in a negative control group). The relative tumor volume (RTV) was calculated according to results of tumor measurement, and the calculation formula was RTV=Vt/V0, where V0 was average tumor volume measured at the time of administration by group (i.e., D0), and Vt was average tumor volume at the time of a certain measurement. For TRTV and CRTV, data on the same day were used.
TGI (%) reflected tumor growth inhibition rate. TGI(%)=[(1−(average tumor volume at the end of administration of a treatment group−average tumor volume at the beginning of administration of the treatment group))/(average tumor volume at the end of treatment of a vehicle control group−average tumor volume at the beginning of treatment of the vehicle control group)]×100%.

C=C(F)C(=O)N1CCN(c2nc(OC[C@@]34CCCN3C[C@H](F)C4)nc3c2CO[C@H](c2c(F)c(N)cc(C)c2C(F)(F)F)C3)C[C@@H]1CC#N [Compound of formula (I)]
Average tumor volume (10 mg/kg PO QD): 249.87 mm^3
T/C (10 mg/kg PO QD): 12.39%
TGI (10 mg/kg PO QD): 93.06%
Average tumor volume (30 mg/kg PO QD): 124.14 mm^3
T/C (30 mg/kg PO QD): 6.16%
TGI (30 mg/kg PO QD): 99.64%
